How the values were obtained:
Assay in all cases: relative viability (nuclei count vs DMSO), 5 days (fraction); higher = more cells survive
[1] = compound: CC1=C(C(=NN1)C)CC2=C(C3=C(S2)N(C(=O)N(C3=O)C)CC(C)C)C(=O)N4C[C@@H](CO4)O + NC(=O)Nc1cc(-c2cccc(F)c2)sc1C(=O)N[C@H]1CCCNC1 [AZD7762] (partner 0.2 µM)
Method in brief: (§1)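 Lung cancer cell lines in 1536-well plates got either a single drug or a fixed anchor-drug dose together with five library-drug doses (not always all listed) in √10 steps, by pin tool, on the day after seeding. Nuclei were counted after 5 days, and relative viability is the treated-to-vehicle ratio of nuclei counts. Values are medians of duplicate plates.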

[2] = compound: CC1=C(C(=NN1)C)CC2=C(C3=C(S2)N(C(=O)N(C3=O)C)CC(C)C)C(=O)N4C[C@@H](CO4)O + CS(=O)(=O)N1CCN(Cc2cc3nc(-c4cccc5[nH]ncc45)nc(N4CCOCC4)c3s2)CC1 [Pictilisib] (partner 1 µM)
Method in brief: as §1

IDH-C35 + Phenformin = compound: Cc1ccccc1C(C(=O)NC1CCCCC1)N(C(=O)Cn1ccnc1C)c1cccc(F)c1 [IDH-C35] + N=C(N)NC(=N)NCCc1ccccc1 [Phenformin] (partner 250 µM)
Method in brief: as §1

[3] = compound: CC1=C(C(=NN1)C)CC2=C(C3=C(S2)N(C(=O)N(C3=O)C)CC(C)C)C(=O)N4C[C@@H](CO4)O + CC(=O)Nc1cccc(-n2c(=O)n(C3CC3)c(=O)c3c(Nc4ccc(I)cc4F)n(C)c(=O)c(C)c32)c1 [Trametinib] (partner 0.02 µM)
Method in brief: as §1

Cell Line	relative viability ([1]; first compound 0.0025 µM)	relative viability ([1]; first compound 0.007906 µM)	relative viability ([1]; first compound 0.025 µM)	relative viability ([1]; first compound 0.07906 µM)	relative viability ([1]; first compound 0.25 µM)	relative viability ([2]; first compound 0.0025 µM)	relative viability ([2]; first compound 0.007906 µM)	relative viability ([2]; first compound 0.025 µM)	relative viability ([2]; first compound 0.07906 µM)	relative viability ([2]; first compound 0.25 µM)	relative viability (IDH-C35 + Phenformin; first compound 0.08 µM)	relative viability (IDH-C35 + Phenformin; first compound 0.253 µM)	relative viability (IDH-C35 + Phenformin; first compound 0.8 µM)	relative viability (IDH-C35 + Phenformin; first compound 2.53 µM)	relative viability (IDH-C35 + Phenformin; first compound 8 µM)	relative viability ([3]; first compound 0.0025 µM)	relative viability ([3]; first compound 0.007906 µM)	relative viability ([3]; first compound 0.025 µM)	relative viability ([3]; first compound 0.07906 µM)	relative viability ([3]; first compound 0.25 µM)
NCI-H838	0.908	0.859	0.884	0.835	0.896	0.506	0.507	0.607	0.511	0.552	0.729	0.599	0.502	0.659	0.543	0.498	0.569	0.393	0.452	0.505
NCI-H1755	0.465	0.434	0.425	0.407	0.471	0.445	0.42	0.44	0.479	0.497	0.605	0.614	0.65	0.639	0.649	0.829	0.818	0.745	0.73	0.761
HCC-78	0.538	0.588	0.555	0.529	0.673	0.217	0.218	0.172	0.169	0.194	0.608	0.682	0.644	0.798	0.745	0.796	0.77	0.775	0.663	0.811
IA-LM	–	–	–	–	–	0.393	0.272	0.395	0.347	0.375	–	–	–	–	–	–	–	–	–	–
NCI-H322M	0.655	0.57	0.71	0.573	0.662	0.519	0.504	0.562	0.58	0.5	0.761	0.798	0.772	0.749	0.743	0.503	0.577	0.471	0.527	0.433
COR-L23	–	–	–	–	–	0.806	0.794	0.522	0.589	0.635	0.478	0.42	0.423	0.421	0.382	0.662	0.74	0.452	0.547	0.712
NCI-H2023	–	–	–	–	–	0.308	0.288	0.276	0.23	0.236	0.405	0.376	0.404	0.41	0.351	0.667	0.613	0.562	0.599	0.575
COR-L 105	–	–	–	–	–	0.406	0.445	0.376	0.398	0.356	0.479	0.479	0.555	0.484	0.457	0.48	0.443	0.511	0.466	0.406
NCI-H520	–	–	–	–	–	0.32	0.259	0.304	0.269	0.288	0.588	0.665	0.652	0.525	0.699	0.671	0.824	0.455	0.457	0.463
SK-LU-1	–	–	–	–	–	0.544	0.354	0.336	0.327	0.343	0.604	0.541	0.558	0.628	0.527	0.47	0.409	0.326	0.344	0.374
NCI-H522	0.836	1.05	0.546	0.565	0.624	–	–	–	–	–	0.643	0.65	0.764	0.629	0.659	0.77	0.768	0.701	0.606	0.657
NCI-H1299	–	–	–	–	–	0.772	0.958	0.931	0.944	0.945	–	–	–	–	–	–	–	–	–	–
NCI-H1650	–	–	–	–	–	0.575	0.587	0.714	0.67	0.708	0.486	0.423	0.436	0.462	0.379	0.626	0.687	0.759	0.62	0.788
NCI-H2009	–	–	–	–	–	0.875	0.884	0.842	0.998	0.909	0.56	0.498	0.521	0.451	0.481	0.318	0.286	0.289	0.287	0.237
NCI-H1648	0.615	0.437	0.5	0.428	0.613	–	–	–	–	–	–	–	–	–	–	0.593	0.431	0.635	0.356	0.52
SK-MES-1	–	–	–	–	–	0.385	0.421	0.369	0.398	0.432	0.696	0.649	0.6	0.673	0.648	0.562	0.607	0.604	0.591	0.592
NCI-H2342	0.414	0.505	0.345	0.373	0.388	–	–	–	–	–	0.572	0.566	0.579	0.651	0.527	0.932	0.751	0.724	0.854	0.976
SW 900	0.604	0.706	0.628	0.58	0.449	–	–	–	–	–	0.669	0.591	0.56	0.615	0.438	0.666	0.951	0.787	0.74	0.8
A549	–	–	–	–	–	0.391	0.505	0.538	0.52	0.54	0.188	0.189	0.151	–	0.19	–	–	–	–	–
NCI-H661	–	–	–	–	–	0.473	0.41	0.378	0.379	0.385	0.305	0.275	0.307	0.28	0.266	0.624	0.59	0.505	0.583	0.56
NCI-H1563	–	–	–	–	–	0.649	0.68	0.649	0.672	0.735	0.703	0.625	0.696	0.623	0.649	–	–	–	–	–
ABC-1	0.777	0.631	0.732	0.878	0.841	0.874	0.844	0.693	0.948	0.737	0.261	0.218	0.247	0.235	0.23	–	–	–	–	–
